Assay results taken from PMC4151304 (European journal of medicinal chemistry, 2012).

Assays:
PRMT1 [1] = target: T1, PRMT1 (Rattus norvegicus, UniProt Q63009); assay: Radioactive methyltransferase assay, PRMT1; type: biochemical; settings: for IC50: IC50, His6x-PRMT1 0.05 μM, 2 μM H4(1-20), 5 μM [14C]-SAM, 30°C
HeLa cells = assay: Cell cycle assay by flow cytometry; type: cell-based; settings: 48 h of treatment at 2.5 and 5 μM (data not shown)
PRMT1 [2] = target: T1, PRMT1; assay: Dialysis experiment and time-dependent inhibition; type: biochemical; settings: dialysis and time-dependent inhibition (0, 1.5, 2.5, 4.0 μM)
PRMT4/CARM1 = target: T2, PRMT4/CARM1 (Mus musculus, UniProt Q9WVG6); assay: Radioactive methyltransferase assay, CARM1; type: biochemical
T2 sequence (Q9WVG6 1-608): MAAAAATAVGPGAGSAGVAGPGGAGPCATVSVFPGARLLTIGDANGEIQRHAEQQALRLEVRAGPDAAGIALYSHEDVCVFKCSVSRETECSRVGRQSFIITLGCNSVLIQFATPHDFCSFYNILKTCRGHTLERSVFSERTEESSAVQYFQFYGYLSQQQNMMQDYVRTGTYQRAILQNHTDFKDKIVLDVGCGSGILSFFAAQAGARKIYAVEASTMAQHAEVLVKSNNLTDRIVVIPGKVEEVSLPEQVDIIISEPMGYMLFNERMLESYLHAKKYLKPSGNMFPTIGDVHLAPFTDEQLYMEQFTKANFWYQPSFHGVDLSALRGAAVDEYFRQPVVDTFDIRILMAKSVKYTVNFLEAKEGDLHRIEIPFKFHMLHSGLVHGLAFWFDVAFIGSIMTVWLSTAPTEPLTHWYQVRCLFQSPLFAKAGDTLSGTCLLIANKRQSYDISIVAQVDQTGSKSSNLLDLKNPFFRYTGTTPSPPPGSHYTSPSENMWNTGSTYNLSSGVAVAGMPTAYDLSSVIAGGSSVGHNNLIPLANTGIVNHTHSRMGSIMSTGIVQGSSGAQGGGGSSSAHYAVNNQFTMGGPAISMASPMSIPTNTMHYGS

PRMT1 Y152A = PRMT1 Y152A (Rattus norvegicus, UniProt Q63009, Y152A); assay: Radioactive methyltransferase assay, PRMT1 mutant Y152A; type: biochemical; settings: 4 μM inhibitor, 2 μM H4-20, 5 μM [14C]AdoMet
Sequence of PRMT1 Y152A (Q63009 whole entry Y152A): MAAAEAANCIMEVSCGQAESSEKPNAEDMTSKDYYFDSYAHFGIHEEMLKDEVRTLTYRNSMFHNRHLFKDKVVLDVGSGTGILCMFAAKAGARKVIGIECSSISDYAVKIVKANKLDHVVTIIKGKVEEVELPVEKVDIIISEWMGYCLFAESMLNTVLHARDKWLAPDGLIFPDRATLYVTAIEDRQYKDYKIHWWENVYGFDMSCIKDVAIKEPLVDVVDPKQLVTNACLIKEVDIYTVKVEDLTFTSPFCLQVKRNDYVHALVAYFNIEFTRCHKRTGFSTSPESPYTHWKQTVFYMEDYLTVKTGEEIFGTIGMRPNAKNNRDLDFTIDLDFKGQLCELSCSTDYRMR

T1 sequence (Q63009 whole entry): as the sequence (Q63009 whole entry Y152A) above, with A152Y counted along it

IC50 (PRMT1 [1]) [µM]	Structure (SMILES)	further results
15.5 ± 0.2	C(/C=C/C1=[N+](CCCc2ccccc2)c2cccc3cccc1c23)=c1\c2cccc3cccc(c32)n1CCCc1ccccc1 [compound 13, 1-phenylpropyl-2-[3-(1-phenylpropylbenz[c,d]indol-2(1H)-ylidene)-1-propen-1-yl]iodide]	–
14.3 ± 0.2	CC1(C)C(/C=C/C=C2/N(CCCc3ccccc3)c3ccc4ccccc4c3C2(C)C)=[N+](CCCc2ccccc2)c2ccc3ccccc3c21 [compound 27]	–
12 ± 0.5	CCCCn1/c(=C\C=C\C2=[N+](CCCC)c3cccc4cccc2c34)c2cccc3cccc1c32 [compound 12, 1-butyl-2-[3-(1-butyllbenz[c,d]indol-2(1H)-ylidene)-1-propen-1-yl]-iodide]	–
–	CCn1/c(=C\C=C\C2=[N+](CC)c3cccc4cccc2c34)c2cccc3cccc1c32.[I-] [compound 11, 1-ethyl-2-[3-(1-ethylbenz[c,d]indol-2(1H)-ylidene)-1-propen-1-yl]-iodide]	Sub-G1 population, indicative of apoptosis (HeLa cells): appearance of a hypodiploid peak (Sub-G1) was observed; reversible vs irreversible inhibition (PRMT1 [2]): reversible; IC50 (PRMT4/CARM1): ~100 µM; kinetic pattern of inhibition (PRMT1 [1]; steady-state kinetics, with regard to both H4 and AdoMet substrates): noncompetitive inhibitor; inhibition of Y152A PRMT1 compared with wt-PRMT1 (PRMT1 Y152A): same potency as is for wt-PRMT1
292 ± 40.1	CC1(C)C(/C=C/C=C2/N(CCC[N+](C)(C)C)c3ccc(Br)cc3C2(C)C)=[N+](CCC[N+](C)(C)C)c2ccc(Br)cc21 [compound 29]	–
20.3 ± 0.2	CCN1/C(=C/C=C/C2=[N+](CC)c3ccc4ccccc4c3C2(C)C)C(C)(C)c2c1ccc1ccccc21 [compound 25]	–
18 ± 0.5	CCCCN1/C(=C\C=C\C2=[N+](CCCC)c3ccc4ccccc4c3C2(C)C)C(C)(C)c2c1ccc1ccccc21 [compound 26]	–

Structure (SMILES)	IC50 (PRMT1 [1]) [µM]	further results
CCN1/C(=C\C=C\C2=[N+](CC)c3ccccc3C2(C)C)C(C)(C)c2ccccc21 [compound 22]	284 ± 3.5	–
